Measured values from ChEMBL document CHEMBL1157539, “Thousands of chemical starting points for antimalarial lead identification” (Nature, 2010).

The compounds below were run on Plasmodium falciparum (assay: GSK_TCMDC: Inhibition of Plasmodium falciparum 3D7 in whole erythrocytes, using parasite LDH activity as an index of growth.). Conditions: Plasmodium falciparum, 3D7.
Type: functional, organism-based

In order of falling XC50:
1. Cc1nnc2c(NC(=O)NC3CCCC3)cc3cc(-c4ccc(CN(C)C)cc4)ccc3n12  1470 nM
2. CC1CN(c2ccc(C(=O)NCC3CC3)cc2NC(=O)OCc2ccccc2)CC(C)O1 (configuration not stated)  1300 nM
3. CC(C)CCN1CCC(Oc2ccc(NC(=O)c3ccccc3)cc2Cl)CC1  1300 nM
4. CC(C)(C(=O)NCCC1CCN(CCCCCNC(=O)/C=C/c2ccc(Cl)c(Cl)c2)CC1)c1ccc(Cl)cc1  1280 nM
5. CCc1sc(N2CCN(C)CC2)nc1C(=O)NCCc1ccc(Cl)c(Cl)c1  1180 nM
6. C=CCn1c(=N)c(C(=O)NCc2ccc(F)cc2)cc2c(=O)n3cccc(C)c3nc21  1170 nM
7. CN(C)Cc1cc2c(O)c(Cc3ccccc3)ccc2o1  1090 nM
8. Nc1nc(N)c2c(Sc3ccc(F)cc3)cccc2n1  1070 nM
9. O=C(Nc1ccccc1N1CCOCC1)c1ncoc1-c1ccccc1C(F)(F)F  1060 nM
10. S=C(Nc1ccccc1Cl)NC1CCC(CN2CCC(c3c[nH]c4ccccc34)CC2)CC1 (configuration not stated)  1050 nM
11. N=C1C=C(N)C(=O)c2ccccc21  1050 nM
12. COc1ccc2ncc(F)c(CCN3CC[C@@H](CNCc4ccc5c(c4C)OCCO5)C3)c2n1  1030 nM
13. O=C(Nc1ccc2c(c1)CCC2)c1cccc(N2CCN(c3ccncc3)CC2)c1  971 nM
14. CC(Oc1ccc(Cl)cc1)C(=O)N(C)C1CCN(CCCCCNC(=O)/C=C/c2ccc(Cl)c(Cl)c2)CC1 (configuration not stated)  959 nM
15. O=C(/C=C/c1cccc(OC(F)(F)F)c1)NCCCCCN1CCC(c2c[nH]c3ccccc23)CC1  958 nM
16. O=C(Nc1cccc(CN2CCCN(Cc3ccc(F)cc3)CC2)c1)c1ccc(Cl)c(Cl)c1  958 nM
17. O=C(C=Cc1ccc(Cl)c(Cl)c1)NCCCCCN1CCCC(CCCNS(=O)(=O)c2ccc(Br)cc2)C1 (configuration not stated)  955 nM
18. CCN(CC)CCN(Cc1ccc(-c2ccc(C(F)(F)F)cc2)cc1)C(=O)c1c[nH]c2ccc(Br)cc12  953 nM
19. COC(=O)c1ccc(CC(C)NCC(O)c2cccc3ccccc23)cc1 (configuration not stated)  935 nM
20. Fc1ccc(CNc2ccc3ncc(-c4cccnc4)n3n2)cc1  928 nM
21. CCN1CCC(N(CCCCCCc2ccc(C(F)(F)F)cc2)C(=O)Cn2c(CCc3cccc(F)c3F)cc(=O)c3ccccc32)CC1  927 nM
22. CN1CCCN(Cc2cccc(-c3cccc(NC(=O)c4ccc(Cl)cc4)c3)c2)CC1  922 nM
23. COc1ccc(CCN(C)CCCOc2ccc(NC(=O)c3cccc4c(=O)c5ccccc5[nH]c34)cc2)cc1OC  912 nM
24. CC(C)C[C@H](NC(=O)c1cc2ccccc2s1)C(=O)N[C@H]1CCN(Cc2ccc(OCCCN(C)C)c(Cl)c2)C1  901 nM
25. Cc1cc(OCCCN2CCCCC2)ccc1NC(=O)COc1ccc(Cl)cc1C(=O)c1cc(Cl)cc(C#N)c1  892 nM
26. Clc1ncnc2scc(-c3ccc(Br)cc3)c12  886 nM
27. COc1ccc(CN2CCCC(N3CC4(OC3=O)c3ccccc3-c3ccccc34)C2)c(O)c1 (configuration not stated)  873 nM
28. COc1ccc(N(c2nc(-c3cc(Cl)ccc3Cl)cs2)C2CCNC2)cc1 (configuration not stated)  873 nM
29. CCc1c(CCNCCCCCCNC(C)Cc2ccc3c(c2CC)OCO3)ccc(OC)c1OC (configuration not stated)  870 nM
30. O=c1cnc2ccc(F)cc2n1CCN1CCC(NCc2cc(-c3ccccc3)cs2)CC1  863 nM
31. O=C(NCc1ccccn1)C(c1cc2ccccc2o1)N1CCN(C(c2ccccc2)c2ccccc2)CC1 (configuration not stated)  856 nM
32. O=C(CCc1ccccc1)NC(c1ccc(Cl)cc1)c1ccc2cccnc2c1O (configuration not stated)  847 nM
33. O=C(Nc1ccc2c(c1)CCCN2S(=O)(=O)c1cccs1)c1cc([N+](=O)[O-])ccc1Cl  845 nM
34. COCCN(CCOC)c1ncc(-c2ccsc2)c(-c2nc(C)c(C)s2)n1  843 nM
35. CC(C)(C)c1ccc(CNC(=O)c2ccc(-c3nc4cc(C(C)(C)C)ccc4[nH]3)cc2)cc1  840 nM
36. c1cc(CN2CCCCC2)cc(-c2cccc(-c3nc4ccccc4[nH]3)c2)c1  828 nM
37. c1ccc(-c2ccc3c(Nc4ccc5[nH]ncc5c4)ccnc3c2)nc1  822 nM
38. COc1ccc2ncc(F)c(CCN3CC(O)C(CNCc4ccc(F)cc4)C3)c2n1 (configuration not stated)  821 nM
39. Cc1cnc(Nc2ccccc2)nc1N[C@@H](CCCN)C(=O)Nc1ccccc1  807 nM
40. Cc1ccc(CC(C)NCC(O)c2cccc(Br)c2)cc1 (configuration not stated)  802 nM
41. CCCCC1(NC(=O)[C@H](CC(C)C)Nc2ccc(C#N)c3ccccc23)CCCCC1  799 nM
42. O=C(NC1CCC1)C1CCN(C(c2ccccc2)c2cc(F)cc(F)c2)CC1 (configuration not stated)  797 nM
43. O=C(NC1CCCCN(Cc2ccccc2O)C1)c1cccc(C(F)(F)F)c1 (configuration not stated)  795 nM
44. CN1CCCN(c2ccnc3cc4c(cc23)N(C(=O)c2ccc(Cl)cc2)CC4)CC1  791 nM
45. Oc1ccc(-c2cc(-c3ccc(O)cc3)nc(-c3ccccc3)n2)cc1  783 nM
46. CCOC(=O)CCCOc1c(OC)cc(Cc2cnc(N)nc2N)cc1OC  778 nM
47. Cc1nn(-c2ccccc2)c2c1C(c1ccc(C(C)C)cc1)N1C(=N2)N(Cc2ccccc2)c2ccccc21 (configuration not stated)  776 nM
48. CCCCCN1CCCC1CNS(=O)(=O)c1cccc(C(=O)Nc2cccc(C(F)(F)F)c2)c1 (configuration not stated)  770 nM
49. CN(C(=O)C1(c2ccc(Cl)cc2)CC1)C1CCN(CCCCCNC(=O)/C=C/c2ccc(Cl)c(Cl)c2)CC1  769 nM
50. Cc1cccc(C)c1/N=C1\NC(=S)N(c2cccc(Cl)c2)C12CCC(C(C)(C)C)CC2 (configuration not stated)  760 nM
51. Cc1cccc2nc(-c3cccc(-c4ccc(C(=O)NCc5ccccc5S(C)(=O)=O)cc4)c3)[nH]c12  750 nM
52. Cc1cccc2nc(-c3ccc(-c4ccc(NC(=O)C5CCN(C)CC5)cc4)cc3)[nH]c12  748 nM
53. N#CCCN1CCN(Cc2cccc(-c3ccc(-c4nc5cc(C(F)(F)F)ccc5[nH]4)cc3)c2)CC1  744 nM
54. CC(=O)c1c(CC(=O)O)c2ccccc2n1O  735 nM
55. CNC(=O)c1ccccc1Nc1nc(Nc2ccc(N3CCOCC3)cc2)ncc1Cl  727 nM
56. CC(C)c1ccc(NC(=O)N[C@H]2CCN(CCCCCNC(=O)/C=C/c3ccc(Cl)c(Cl)c3)C2)cc1  710 nM
57. CCOc1cc(CC)ccc1C1CCN(CCN2CCC(CNC(=O)c3ccc(-c4ccc(C#N)cc4)cc3)CC2)CC1  708 nM
58. CCC(C)(C)c1ccc(Oc2ccc(NC(=O)Nc3ccc(Cl)c(Cl)c3)cc2)cc1  704 nM
59. Cc1[nH]c2ccccc2c1C1CCN(CCCCNC(=O)c2ccc(-c3ccc(C#N)cc3)cc2)CC1  704 nM
60. Cn1ccnc1S(=O)(=O)CCNCc1ccc(-c2ccc3ncnc(Nc4ccc(OCc5cccc(F)c5)c(Cl)c4)c3c2)o1  701 nM
61. CCCCNCCOc1ccc(-c2nc(-c3ccccc3)c(-c3ccccc3)[nH]2)cc1  679 nM
62. O=C(Nc1cccc(OC2CCN(Cc3ccccc3)CC2)c1)c1ccc([N+](=O)[O-])cc1  661 nM
63. CCOc1cc(C(=O)Nc2ccccc2N2CCN(S(C)(=O)=O)CC2)cc(OCC)c1OCC  653 nM
64. O=C(/C=C/c1ccc(Cl)c(Cl)c1)NCCCCCN1CCC(C(=O)Nc2ccc(F)c(Cl)c2)CC1  647 nM
65. Nc1nccc2ccc(-c3cccc(O)c3)cc12  642 nM
66. COc1ccc(NC(=O)/C=C/c2ccccc2Cl)cc1OCCN1CCC(O)(c2ccc(Cl)c(C(F)(F)F)c2)CC1  637 nM
67. O=C(Nc1cccc(-c2nn3ccccc3c2-c2ccnc(Nc3cccc(C(F)(F)F)c3)n2)c1)c1c(F)cccc1F  627 nM
68. COc1ccc(-c2csc(N(CCCN(C)C)C(=O)c3cc4c(C)nn(-c5ccccc5)c4s3)n2)cc1  623 nM
69. CC(=O)Nc1ncc(C(=O)Nc2cccc(-c3ccc(-c4nc5cc(F)ccc5[nH]4)cc3)c2)s1  622 nM
70. CCNc1cc(C(=O)N[C@@H](Cc2ccoc2)[C@H](O)CNC(C)CCCC(C)C)cc(N2CCCCS2(=O)=O)c1 (some centres not stated)  619 nM
71. Cc1ccc(N2CCN(C(=O)c3cccc(-c4cncc5nc(-c6ccco6)n(C)c45)c3)CC2)nc1  596 nM
72. N#CN1CC[C@@H](NS(=O)(=O)Cc2ccc(Cl)c(Cl)c2)C1  532 nM
73. O=C(NCCCCN1CCC(c2ccc3c(c2OCCN2CCCC2)CCCC3)CC1)c1ccc(-c2ccc(C(F)(F)F)cc2)cc1  447 nM
74. CC(C)(C)C(=O)Oc1ccc(CC2NCCc3cc(OC(=O)C(C)(C)C)c(OC(=O)C(C)(C)C)cc32)cc1OC(=O)C(C)(C)C (configuration not stated)  419 nM
75. Nc1cccc(CNCc2cccc(-c3ccc(-c4nc5ccccc5[nH]4)cc3)c2)c1  415 nM
76. Cc1[nH]c(C)c(-c2cccc(-c3ccc(OC(F)(F)F)cc3)c2)c(=O)c1Br  410 nM
77. O=C(Nc1ccc(Cl)cc1)c1ccc(CN2CCCN(Cc3cccc(O)c3)CC2)cc1  388 nM
78. CCCCN1CC[C@@H](CCC(O)c2cc(OCCC)nc3ccc(OC)cc23)[C@@H](CC)C1 (some centres not stated)  356 nM
79. COc1ccc2nccc([C@@H](O)CN3CCC(NCc4ccc5sc(=O)[nH]c5c4)CC3)c2c1  287 nM
80. CC(C)(C)c1ccc(O)c(CNC2CCCCC2)c1  264 nM
81. COc1ccc2ncc(F)c(CCN3C4CCC3CC(NCc3ccc5c(c3)OCCO5)C4)c2n1 (configuration not stated)  225 nM
82. O=C(NC1CCCc2ccccc21)[C@@H]1CCCN1C(=O)c1ccc(O)c(-c2ccc(Cl)c(Cl)c2)c1 (some centres not stated)  209 nM
83. COc1cc2nc(NCCCOC(C)C)n3nc(-c4ccccc4)nc3c2cc1OC  196 nM
84. CCCCC(CCCC)CN1C(=O)C(c2ccccc2)(c2ccccc2)N=C1N  182 nM
85. O=C(Nc1ccc(C(F)(F)F)cc1)NC1CCN(c2ccnc3cc(Cl)ccc23)CC1  178 nM
86. C=C(NC(=O)c1cc(C)cc(C)c1)C(=O)OC  174 nM
87. OCCNc1nc(Nc2ccc(F)cc2)nc2ccccc12  164 nM
88. CC1(C)N=C(N)N=C(N)N1c1cccc(I)c1  126 nM
89. COc1ccc(C23Oc4cc(OC)cc(OC)c4C2(O)C2(CC3c3ccccc3)SCCCS2)cc1 (configuration not stated)  124 nM
90. COc1ccc2nccc([C@@H](O)CN3CCC(NCc4cc5ccc(Cl)cc5[nH]4)CC3)c2c1  121 nM
91. O=C(Nc1cccc(-c2cccc(-c3nc4cc(C(F)(F)F)ccc4[nH]3)c2)c1)Nc1ccc(F)c(F)c1F  119 nM
92. CCN(CC)CCCNc1nccc(N2CCc3ncnc(Nc4ccc(OCc5cccc(F)c5)c(Cl)c4)c3C2)n1  111 nM
93. Nc1nccc2ccc(-c3ccc4nccn4c3)cc12  101 nM
94. COc1ccc(-c2cccc(NC(=O)c3ccc(C#N)cc3)c2)cc1CN(C)CCN(C)C  74.7 nM
95. Fc1ccccc1CNc1ncc(-c2ccsc2)c(-c2nccs2)n1  54 nM
96. CC1(C)NC(N)=NC(=N)N1OCCSCCON1C(=N)N=C(N)NC1(C)C  50.6 nM
97. COc1cc(OCCCCCCON2C(=N)N=C(N)NC2(C)C)cc(OC)c1OC  3.2 nM
